Consider 22 compounds from patent publication US7019002B2, “Pyridopyrimidinones derivatives as telomerase inhibitors” (Pharmacia & Upjohn, S.p.A., priority 2001, dated 2006).

A word on the IC50: it is the concentration at which inhibition is half-maximal. A low value points to greater potency in that assay.

Molecules are shown by their SMILES.

T1 sequence (O14746 whole entry): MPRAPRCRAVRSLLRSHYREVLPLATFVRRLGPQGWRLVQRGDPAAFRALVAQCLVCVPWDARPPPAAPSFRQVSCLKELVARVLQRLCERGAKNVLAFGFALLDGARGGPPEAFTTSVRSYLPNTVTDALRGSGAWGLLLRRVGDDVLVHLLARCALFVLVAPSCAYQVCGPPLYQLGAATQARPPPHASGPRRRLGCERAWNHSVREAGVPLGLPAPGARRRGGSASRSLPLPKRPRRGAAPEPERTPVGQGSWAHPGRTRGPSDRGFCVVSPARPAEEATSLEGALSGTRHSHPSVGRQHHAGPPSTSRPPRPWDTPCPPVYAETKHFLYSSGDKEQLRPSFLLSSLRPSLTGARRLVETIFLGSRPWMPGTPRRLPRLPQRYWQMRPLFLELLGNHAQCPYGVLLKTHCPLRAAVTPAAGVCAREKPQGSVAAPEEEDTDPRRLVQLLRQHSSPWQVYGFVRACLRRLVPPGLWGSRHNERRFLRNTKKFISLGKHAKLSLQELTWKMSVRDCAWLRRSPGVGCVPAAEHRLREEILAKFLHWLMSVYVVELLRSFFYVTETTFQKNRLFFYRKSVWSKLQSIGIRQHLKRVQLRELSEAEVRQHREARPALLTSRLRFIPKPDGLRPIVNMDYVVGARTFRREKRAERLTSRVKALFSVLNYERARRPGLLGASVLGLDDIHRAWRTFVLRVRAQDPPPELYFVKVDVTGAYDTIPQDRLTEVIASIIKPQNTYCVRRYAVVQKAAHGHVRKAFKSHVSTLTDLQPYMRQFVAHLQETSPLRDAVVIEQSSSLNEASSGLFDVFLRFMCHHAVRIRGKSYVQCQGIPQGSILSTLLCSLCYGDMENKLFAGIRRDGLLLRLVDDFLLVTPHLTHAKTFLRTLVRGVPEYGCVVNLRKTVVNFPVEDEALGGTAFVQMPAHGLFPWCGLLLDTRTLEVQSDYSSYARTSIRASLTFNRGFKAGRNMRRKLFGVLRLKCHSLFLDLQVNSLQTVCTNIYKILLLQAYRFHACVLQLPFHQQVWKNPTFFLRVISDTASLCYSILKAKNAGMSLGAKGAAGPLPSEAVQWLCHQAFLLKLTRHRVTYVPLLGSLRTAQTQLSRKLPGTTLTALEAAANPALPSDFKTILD

The assay addresses T1, telomerase enzyme (Homo sapiens, UniProt O14746).
T1 construct: telomerase enzyme diluted in a buffer
Nature of the assay: Flash Plate-based telomerase activity assay. The format is biochemical. The note with it: telomerase inhibition; two hours of incubation at 37°; Flash Plate readout, Sigma Plot fit. The protocol:
The telomerase activity of compounds of the invention have been evaluated using a Flash Plate-based assay.
Briefly the assay mixture is constituted of: • telomerase enzyme diluted in a buffer, the composition of which has been selected to maintain the enzyme activity stable along the duration of the assay. • dNTPs, deoxynucleotides 5′-triphosphate. • biotinylated oligo as primer. • increasing concentrations of test compounds/positive control.
After two hours of incubation at 37° degrees the telomeric repeats added are evaluated by hybridization in solution with a 3′-labeled short oligonucleotide probe.
The extent of hybridization is then quantitated by transferring the reaction mixture in a streptavidin-coated flash plate, where the binding between biotin and streptavidin occurs.
The telomerase activity is proportional to the radioactivity measured and the inhibitory activity of the compounds is evaluated as IC50 using the Sigma Plot fit program.
With the above-described method IC50 values of the compounds of the present invention were determined.
Compound `Cc1nc(N2CCN(c3ccc(F)cc3)CC2)nc2c1ccc(=O)n2-c1ccc(C(=O)NCc2ccco2)cc1` [Compound 21, 4-(2-[4-(4-fluorophenyl)-1-piperazinyl]-4-methyl-7-oxopyrido[2,3-d]pyrimidin-8(7H)-yl)-N-(2-furylmethyl)benzamide] registered an IC50 of 21.8 µM.

The compound `Cc1nc(N2CCN(c3ccc(F)cc3)CC2)nc2c1ccc(=O)n2-c1ccc(C(=O)NCc2ccccc2)cc1` [Compound 20, N-benzyl-4-(2-[4-(4-fluorophenyl)-1-piperazinyl]-4-methyl-7-oxopyrido[2,3-d]pyrimidin-8(7H)-yl)benzamide] showed a 50% inhibitory concentration (IC50) of 6.1 µM. Against the preceding compound, the IC50 is about 3.6-fold lower.

Turning to `Cc1nc(N2CCN(c3ccccn3)CC2)nc2c1ccc(=O)n2-c1ccc(C(=O)NCc2ccco2)cc1` [Compound 24, N-(2-furylmethyl)-4-(4-methyl-7-oxo-2-[4-(2-pyridinyl)-1-piperazinyl]pyrido[2,3-d]pyrimidin-8(7H)-yl)benzamide], half-maximal inhibition (IC50) required 3.8 µM.

For the compound `CCOC(=O)c1ccc(NC(=O)c2ccc(-n3c(=O)ccc4c(C)nc(N5CCc6ccccc6C5)nc43)cc2)cc1` [Compound 37, Ethyl 4-{[4-(2-(3,4-dihydro-2(1H)-isoquinolinyl)-4-methyl-7-oxopyrido[2,3-d]pyrimidin-8(7H)-yl)benzoyl]amino}benzoate], inhibition was half-maximal at 2.9 µM (IC50).

For the compound `Cc1nc(N2CCc3ccccc3C2)nc2c1ccc(=O)n2-c1ccc(C(=O)N(C)C)cc1` [Compound 35, 4-(2-(3,4-dihydro-2(1H)-isoquinolinyl)-4-methyl-7-oxopyrido[2,3-d]pyrimidin-8(7H)-yl)-N,N-dimethylbenzamide], inhibition was half-maximal at 1.9 µM (IC50).

`Cc1nc(N2CCN(c3ncccn3)CC2)nc2c1ccc(=O)n2-c1ccc(C(=O)NCc2cccc3ccccc23)cc1` [Compound 32, 4-(4-methyl-7-oxo-2-[4-(2-pyrimidinyl)-1-piperazinyl]pyrido[2,3-d]pyrimidin-8(7H)-yl)-N-(1-naphthylmethyl)benzamide] came in with an IC50 of 1.25 µM.

The compound `CCOC(=O)c1ccc(Nc2nc(C)c3ccc(=O)n(-c4ccc(C(=O)OCC)cc4)c3n2)cc1` [Compound 42, Ethyl 4-({8-[4-(ethoxycarbonyl)phenyl]-4-methyl-7-oxo-7,8-dihydropyrido[2,3-d]pyrimidin-2-yl}amino)benzoate] yielded a half-inhibitory concentration (IC50) of 4.6 µM. Against the preceding compound, the IC50 is about 3.7-fold higher.

Compound `CCCCCCCCNC(=O)c1ccc(-n2c(=O)ccc3c(C)nc(NCC(C)C)nc32)cc1` [Compound 43, 4-(2-Isobutylamino-4-methyl-7-oxo-7H-pyrido[2,3-d]pyrimidin-8-yl)-N-octyl-benzamide] registered an IC50 of 6.1 µM. This IC50 and that of the compound before are within 1.5-fold of each other.

`Cc1nc(NCC(C)C)nc2c1ccc(=O)n2-c1ccc(C(=O)Nc2ccccc2)cc1` [Compound 44, 4-(2-Isobutylamino-4-methyl-7-oxo-7H-pyrido[2,3-d]pyrimidin-8-yl)-N-phenyl-benzamide] had a half-inhibitory concentration (IC50) of 19.1 µM.

`COc1ccc(NC(=O)c2ccc(-n3c(=O)ccc4c(C)nc(N5CCc6ccccc6C5)nc43)cc2)cc1OC` [Compound 34, 4-(2-(3,4-dihydro-2(1H)-isoquinolinyl)-4-methyl-7-oxopyrido[2,3-d]pyrimidin-8(7H)-yl)-N-(3,4-dimethoxyphenyl)benzamide] showed an IC50 of 8.2 µM. Against the preceding compound, the IC50 is about 2.3-fold lower.

As for `Cc1nc(N2CCc3ccccc3C2)nc2c1ccc(=O)n2-c1ccc(C(=O)NCC[N+]2([O-])CCOCC2)cc1` [Compound 45, 4-[2-(3,4-Dihydro-1H-isoquinolin-2-yl)-4-methyl-7-oxo-7H-pyrido[2,3-d]pyrimidin-8-yl]-N-[2-(4-oxy-morpholin-4-yl)-ethyl]-benzamide], the IC50 stood at 7.3 µM.

The compound `Cc1nc(N2CCN(c3ncccn3)CC2)nc2c1ccc(=O)n2-c1ccc(C(=O)NCc2ccco2)cc1` [Compound 28, N-(2-furylmethyl)-4-(4-methyl-7-oxo-2-[4-(2-pyrimidinyl)-1-piperazinyl]pyrido[2,3-d]pyrimidin-8(7H)-yl)benzamide] returned a half-inhibitory concentration (IC50) of 16.6 µM.

The compound `Cc1nc(N2CCc3ccccc3C2)nc2c1ccc(=O)n2-c1ccc(C(=O)NCCC[N+](C)(C)[O-])cc1` [Compound 46, 4-(2-(3,4-dihydro-2(1H)-isoquinolinyl)-4-methyl-7-oxopyrido[2,3-d]pyrimidin-8(7H)-yl)-N-[3-(dimethylamino-N-oxido)propyl]benzamide] showed an IC50 of 2.6 µM.

On to `Cc1nc(N2CCN(c3ncccn3)CC2)nc2c1ccc(=O)n2-c1ccc(C(=O)NCc2cccnc2)cc1` [Compound 30, 4-(4-methyl-7-oxo-2-[4-(2-pyrimidinyl)-1-piperazinyl]pyrido[2,3-d]pyrimidin-8(7H)-yl)-N-(3-pyridinylmethyl)benzamide], for which it took 9.4 µM to reach half-maximal inhibition (IC50).

As for `Cc1nc(N2CCc3ccccc3C2)nc2c1ccc(=O)n2-c1ccc(C(=O)Nc2cccc(C#N)c2)cc1` [Compound 38, N-(3-cyanophenyl)-4-(2-(3,4-dihydro-2(1H)-isoquinolinyl)-4-methyl-7-oxopyrido[2,3-d]pyrimidin-8(7H)-yl)benzamide], the IC50 stood at 1.6 µM. This IC50 lies about 5.9-fold lower than the previous one.

`Cc1nc(N2CCc3ccccc3C2)nc2c1ccc(=O)n2-c1ccc(C(=O)NC2CCCCC2)cc1` [Compound 39, N-cyclohexyl-4-(2-(3,4-dihydro-2(1H)-isoquinolinyl)-4-methyl-7-oxopyrido[2,3-d]pyrimidin-8(7H)-yl)benzamide]: it took 1.4 µM to reach half-maximal inhibition (IC50).

Turning to `COc1ccc(CNC(=O)c2ccc(-n3c(=O)ccc4c(C)nc(N5CCN(c6ccccn6)CC5)nc43)cc2)cc1OC` [Compound 25, N-(3,4-dimethoxybenzyl)-4-(4-methyl-7-oxo-2-[4-(2-pyridinyl)-1-piperazinyl]pyrido[2,3-d]pyrimidin-8(7H)-yl)benzamide], the IC50 is 1.7 µM.

For `Cc1nc(N2CCN(c3ncccn3)CC2)nc2c1ccc(=O)n2-c1ccc(C(=O)NCc2ccccc2)cc1` [Compound 27, N-benzyl-4-(4-methyl-7-oxo-2-[4-(2-pyrimidinyl)-1-piperazinyl]pyrido[2,3-d]pyrimidin-8(7H)-yl)benzamide], half-maximal inhibition (IC50) was put at 3.9 µM.

In the case of `Cc1nc(N2CCN(c3ncccn3)CC2)nc2c1ccc(=O)n2-c1ccc(C(=O)NCc2ccc(F)cc2F)cc1` [Compound 31, N-(2,4-difluorobenzyl)-4-(4-methyl-7-oxo-2-[4-(2-pyrimidinyl)-1-piperazinyl]pyrido[2,3-d]pyrimidin-8(7H)-yl)benzamide], the IC50 was determined as 9.4 µM.

As for `COC(=O)c1ccc(Nc2nc(C)c3ccc(=O)n(-c4ccc(C(=O)OC)cc4)c3n2)cc1` [Compound 41, methyl 4-({8-[4-(methoxycarbonyl)phenyl]-4-methyl-7-oxo-7,8-dihydropyrido[2,3-d]pyrimidin-2-yl}amino)benzoate], the concentration for half-maximal inhibition (IC50) came to 3.1 µM.

As to `Cc1nc(N2CCc3ccccc3C2)nc2c1ccc(=O)n2-c1ccc(C(=O)NC2CC2)cc1` [Compound 33, N-cyclopropyl-4-(2-(3,4-dihydro-2(1H)-isoquinolinyl)-4-methyl-7-oxopyrido[2,3-d]pyrimidin-8(7H)-yl)benzamide], the IC50 was found to be 1.1 µM.

In the case of `COc1ccc(CNC(=O)c2ccc(-n3c(=O)ccc4c(C)nc(N5CCc6ccccc6C5)nc43)cc2)cc1OC` [Compound 36, 4-(2-(3,4-dihydro-2(1H)-isoquinolinyl)-4-methyl-7-oxopyrido[2,3-d]pyrimidin-8(7H)-yl)-N-(3,4-dimethoxybenzyl)benzamide], 2 µM corresponded to half-maximal inhibition (IC50).
